# Assays:
# Ts65Dn mice [1] = conditions: cited from earlier work; for contextual learning: earlier study
# c-Fos = c-Fos immunostaining of the DGC layer; format: in vivo, mouse; conditions: daily IP nadolol alone or nadolol with formoterol until day 16
# Description: (§1) At the end of this period, all mice were anesthetized, perfused, and the brain was extracted. The right hemisphere from each brain was fixed in 4% paraformaldehyde followed by dehydration. The methodology for staining has been published before. […] The left hemisphere was flash frozen and used for gene expression studies.
# (§2) Before all staining(s), to inhibit endogenous peroxidase, 70-μm-thick floating sections were pre-incubated in 0.5% H2O2 in 50% methanol for 30 minutes at RT. This was followed by pre-incubating the sections in 0.1% triton and 10% normal serums(s) (NS, Vector Labs) for 1 hour at RT. This was followed by incubation in primary antibodies overnight at RT. […] For DCX staining the sections were kept in pre-warmed (37° C.) for 30 minutes before staining. This was followed by incubation in secondary anti-bodies that were diluted in 0.1% triton and corresponding 1% NS. The sections were then incubated in ABC Lite (1:1000, Vector) for 1 hour. Staining was terminated by incubating in DAB (0.66 mg/ml in tris-HCl) for 5-10 minutes. Finally, the sections were washed, dehydrated and mounted.
# (§3) FIG. 16. Strategy used for performing IP injections of βAR agonist and antagonist and behavioral testing. […] Four hours later, the mice were tested for cardiovascular and respiratory system effects, open field activity, or fear conditioning. […]
# DCX-positive neurons = experiment: DCX immunostaining: number and dendritic branching of newly born DGCs; format: in vivo, mouse; conditions: nadolol alone or nadolol with formoterol
# Description: as §1, §2
# Ts65Dn and 2N mice [2] = experiment: Fear conditioning (contextual learning); format: in vivo, mouse; conditions: context test one day after training, nadolol 5 mg/kg IP then formoterol 2 mg/kg IP or saline
# Description: (§4) Pharmacological Treatments. […] For details on methods of drug injections see FIG. 16.
# b) Fear Conditioning. […] The fear conditioning tests were done using four FreezeScan chambers (Clever Sys) on days 4 and 5 after the start of the open field-testing. […] Four hours later, the mice were placed in the fear-conditioning chamber and their baseline activity was recorded for three minutes. At the end of this period, each mouse was exposed to five shocks (2 seconds each, 0.5 mA) with inter-trial intervals of 80 seconds. Twenty-four hours later, the mice were injected again, similar to the Training Day, and returned to the same fear-conditioning chamber for five minutes and their activity was recorded. Freezing was defined as a lack of movement for 3 frames (29 frames/s).
# (§5) FIG. 16. Strategy used for performing IP injections of βAR agonist and antagonist and behavioral testing. […] Four hours later, the mice were tested for cardiovascular and respiratory system effects, open field activity, or fear conditioning. The process started with open field-testing on day 1 followed by fear conditioning on days 4 (training) and 5 (testing).
# Fgf2 [3] = experiment: Fgf2 gene expression, real-time PCR in DG micro-punches; format: in vivo; conditions: normalized to B-actin and Gapdh and to a 2N mouse
# BrdU-positive profiles = experiment: BrdU cell count in the DG (cell proliferation); format: in vivo, mouse; conditions: 15 days of treatment, then BrdU 50 mg/kg IP daily for 5 days
# Description: To identify proliferating cells, we used 5-bromo-2′-deoxyuridine (BrdU, Sigma). It was dissolved in PBS, filtered, and kept at 4° C. till use. After 15 days of treatment, each mouse was injected IP daily (50 mg/kg) with BrdU solution for 5 days. Thereafter, on day 21, all mice were anesthetized and transcardially perfused with ice-cold saline. The entire brain was immediately removed and the two hemispheres were separated. The left hemisphere was fixed overnight, cut, and stored. […] This was followed by incubation of sections in ABC.
# Stereo-Investigator (MBF) was used to quantify the total number of BrdU-positive cells in the entire septo-temporal extent of DG. Following the outlining of the DG area at 4×, each positive profile was identified using a 100× oil objective. Unbiased stereological methods were used to determine the total number of BrdU-immunoreactive-profiles throughout the hippocampus. A Nanozoomer system (Hamamatsu 2.0 RS) was used to capture images of the entire slide in each case. High magnification images were captured using the Nanozoomer and stored.
# Ts65Dn and 2N mice [4] = experiment: Open field activity; format: in vivo, mouse; conditions: nadolol 5 mg/kg IP then formoterol 2 mg/kg IP or saline; for total distance travelled: in 10 minutes
# Description: as §4
# a) Open Field Activity. Prior to testing, the mice were handled for five days for habituation. […] Four hours later, the mice were tested for open field activity. The open field arena (450 mm×450 mm) had visual cues on the walls. […] The arena was cleaned after each session. The velocity, total distance traveled, and the time spent in the peripheral 50% versus central 50% area of the arena (bouts) for each mouse were quantified and analyzed using TopScan Lite (Clever Sys).
# as §5
# synaptophysin = experiment: Synaptophysin immunostaining of the DG (synaptic density); format: in vivo, mouse; conditions: daily IP nadolol alone or nadolol with formoterol until day 16
# Description: as §1, §2, §3
# Fgf2 [5] = conditions: rats; IP injections; cited from earlier work
# Ts65Dn and 2N mice [6] = experiment: Cardiovascular and respiratory system monitoring (MouseOx vital signs monitor); conditions: nadolol 5 mg/kg IP, 1 h later formoterol 2 mg/kg IP or saline, tested 4 h later
# Description: as §4
# Cardiovascular and respiratory system monitoring. Peripheral effects of fomoterol were assessed using MOUSEOX® Small Animal Vital Signs Monitor (Starr). The monitor was attached to a collar clip with an LED sensor to enable recordings in free-moving mice. To minimize stress before recording, the collar clip was attached to each animal. After five minutes, heart rate, respiratory rate, and oxygen saturation were recorded using MOUSEOX® 6.3.13 for 10 minutes.
# as §5
# [7] = in vivo; cited from earlier work
# [8] = oral administration in rodents; cited from earlier work
# Ts65Dn mice [9] = conditions: cited from earlier work
compound,measurement,setting,value
O=C(NCCNCC(O)COc1ccc(O)cc1)N1CCOCC1 (stereo not drawn) [xamoterol],contextual learning,Ts65Dn mice [1],restored contextual learning
same,spatial learning and hyperactivity,Ts65Dn mice [1]; later studies,did not improve spatial learning and/or reduce hyperactivity
CC(C)(C)NCC(O)COc1cccc2c1CC(O)C(O)C2 (stereo not drawn) [nadolol],density of c-Fos-positive DGCs,c-Fos; 2N mice,179.30±22.4 cells/mm^2
same,density of c-Fos-positive DGCs,c-Fos; Ts65Dn mice,109.42±13.0 cells/mm^2
same,number of DCX-positive DGCs,DCX-positive neurons; 2N mice,5391.36±744
same,order of dendritic branching of DCX-positive neurons,DCX-positive neurons; 2N mice,2.05±0.12
same,number of DCX-positive DGCs,DCX-positive neurons; Ts65Dn mice,2837.79±500
same,order of dendritic branching of DCX-positive neurons,DCX-positive neurons; Ts65Dn mice,1.58±0.08
same,duration of freezing,Ts65Dn and 2N mice [2]; 2N mice,46.761±3.09 seconds per minute
same,duration of freezing,Ts65Dn and 2N mice [2]; Ts65Dn mice,19.28±4.79 seconds per minute
same,Fgf2 gene expression in DG micro-punches,Fgf2 [3]; 2N mice,1.000±0.41
same,Fgf2 gene expression in DG micro-punches,Fgf2 [3]; Ts65Dn mice,0.344±0.07
same,total number of BrdU-positive profiles in the DG,BrdU-positive profiles; 2N mice,"3,161.390±900"
same,total number of BrdU-positive profiles in the DG,BrdU-positive profiles; Ts65Dn mice,"2,133.290±491"
same,total distance travelled,Ts65Dn and 2N mice [4]; 2N mice,18.233±1.48 meters
same,"number of bouts, central 50% area",Ts65Dn and 2N mice [4]; 2N mice,39.46±4.96
same,"number of bouts, peripheral 50% area",Ts65Dn and 2N mice [4]; 2N mice,45.00±5.68
same,mean velocity in the open field arena,"Ts65Dn and 2N mice [4]; 2N mice, 4 h later",31.465±2.74 mm/s
same,total distance travelled,Ts65Dn and 2N mice [4]; Ts65Dn mice,30.424±2.70 meters
same,"number of bouts, central 50% area",Ts65Dn and 2N mice [4]; Ts65Dn mice,60.25±4.95
same,percentage of area covered by synaptophysin staining in the DG,synaptophysin; 2N mice,27.40±11.00%
same,percentage of area covered by synaptophysin staining in the DG,synaptophysin; Ts65Dn mice,21.50±1.00%
CC(C)(C)NCC(O)c1cc(Cl)c(N)c(Cl)c1 (stereo not drawn) [clenbuterol],Fgf2 mRNA levels in the hippocampus,Fgf2 [5],significant increase
COc1ccc(CC(C)NCC(O)c2ccc(O)c(NC=O)c2)cc1 (stereo not drawn) [formoterol],duration of freezing,Ts65Dn and 2N mice [2]; Ts65Dn mice,34.040±3.66 seconds per minute
same,O2 saturation,Ts65Dn and 2N mice [6]; 2N mice,93.221±0.36%
same,heart rate,Ts65Dn and 2N mice [6]; 2N mice,638.440±44.77 pulse per minute
same,O2 saturation,Ts65Dn and 2N mice [6]; Ts65Dn mice,92.205±1.31%
same,heart rate,Ts65Dn and 2N mice [6]; Ts65Dn mice,672.620±36.58 pulse per minute
same,respiratory rate,Ts65Dn and 2N mice [6]; Ts65Dn mice,189.090±8.40 per minute
same,crossing of the blood brain barrier,[7],cross the blood brain barrier (BBB) and reach the brain
same,time to reach the brain,[8],≤ 30 min
CNCCC(Oc1ccc(C(F)(F)F)cc1)c1ccccc1 (stereo not drawn) [fluoxetine],neurogenesis,Ts65Dn mice [9],promote neurogenesis
"N[C@H](C(=O)O)[C@H](O)c1ccc(O)c(O)c1 [L-DOPS, L-threo-3,4-dihdroxyphenylserine]",contextual learning,Ts65Dn mice [1],restored contextual learning
